Measurements published in patent publication US20210220328A1, “PYRROLE DERIVATIVES AS ACC INHIBITORS” (Almirall, S.A., priority 2017, published 2021).

Tested on: immortalized human sebocyte cell line, SZ95
Test: In vitro assay of inhibition of lipid synthesis
Assay type: cell-based
Conditions: 48 h, SZ95 sebocytes
Experimental: In Vitro Assay of Inhibition of Lipid Synthesis
To evaluate the inhibition of lipid synthesis, the immortalized human sebocyte cell line, SZ95 (stablished by Zouboulis, C. C. et al J Invest Dermatol 1999; 113:1011-20), was treated with arachidonic acid (AA) in presence or absence of compound. Lipids were detected by using a lipid sensing fluorophore.
Compounds were dissolved in dimethylsulfoxide (DMSO) 100%. Then the stocks were serial diluted 1/3 in DMSO 100%, and this battery of solutions were diluted 1/10 in culture medium, to minimize the percentage of the DMSO over cells.
10 k cells were plated in 384 well microtiter plates and incubated at 37° C. and 5% CO2 in DMEM/F12 supplemented with 10% FBS, 1.25 ng/ml of rhEGF and GA-1000 before of compound and stimulus addition. After 24 h, compounds dissolved in culture media were added over cells, diluting the solutions prepared 1/40 in the final volume of the assay. Then, cells and compounds were preincubated for 30 min at 37° C. and 5% CO2. After this prior incubation, the lipid synthesis was induced by 75 μM of AA final solution, preparing a solution 10× in culture media. Finally, SZ95 treated were incubated for 48 h at 37° C. and 5% CO2.
Neutral lipids were measured using AdipoRed™, purchased from LONZA. To do that, cells were washed with PBS and incubated with a solution of AdipoRed™ (final dilution 1/80 in PBS) for 30 min at room temperature. After the staining process, the fluorescence intensity (FI) was quantified using a fluorescence plate reader (excitation 485 nm; emission 535).
Activity of compounds were calculated as % of inhibition considering the maximal fluorescence for AA-stimulated cells and the minimum fluorescence for unstimulated cells as controls.

[1] = 75 μM arachidonic acid, AdipoRed, Table 2, finer classes for compounds with IC50 less than 250 nM
[2] = lipid synthesis induced by 75 μM arachidonic acid, AdipoRed fluorescence, Table 1

CCCCCCCCCCCCCc1c[nH]c(C(=O)OC(C)OC(=O)OC(C)(C)C)c1F (centres unmarked) [Example 45, 1-((Tert-butoxycarbonyl)oxy)ethyl 3-fluoro-4-tridecyl-1H-pyrrole-2-carboxylate]
IC50 [1]: 50 to 100 nM | IC50 [2]: < 250 nM

CCCCCCCCCCCCCc1cc(Cl)c(C(=O)O)[nH]1 [Example 66, 3-Chloro-5-tridecyl-1H-pyrrole-2-carboxylic acid]
IC50 [1]: 100 to 250 nM | IC50 [2]: < 250 nM

CCCCCCCCCCCCC(F)COc1c[nH]c(C(=O)O)c1Cl (centres unmarked) [Example 99, 3-Chloro-4-((2-fluorotetradecyl)oxy)-1H-pyrrole-2-carboxylic acid]
IC50 [1]: 100 to 250 nM | IC50 [2]: < 250 nM

CCOCCCCCCCCCOc1c[nH]c(C(=O)O)c1Cl [Example 100, 3-Chloro-4-((9-ethoxynonyl)oxy)-1H-pyrrole-2-carboxylic acid]
IC50 [2]: 250 to 1000 nM

CCCCCCCCCCCCCCCCCCCc1cc(F)c(C(=O)O)[nH]1 [Example 126, 3-Fluoro-5-nonadecyl-1H-pyrrole-2-carboxylic acid]
IC50 [2]: < 250 nM

CCCCCCCCCCCCCc1c[nH]c(C(=O)OCCOCCOCCOCCO)c1F [Example 42, 2-(2-(2-(2-Hydroxyethoxy)ethoxy)ethoxy)ethyl 3-fluoro-4-tridecyl-1H-pyrrole-2-carboxylate]
IC50 [1]: 100 to 250 nM | IC50 [2]: < 250 nM

CCCCCCCCCCCCOc1c[nH]c(C(=O)OCC(F)(F)F)c1 [Example 5, 2,2,2-Trifluoroethyl 4-(dodecyloxy)-1H-pyrrole-2-carboxylate]
IC50 [2]: 250 to 1000 nM

CCCCCCCCCCCCOc1c[nH]c(C(=O)OC(C)OC(=O)OC(C)C)c1Cl (centres unmarked) [Example 85, 1-((Isopropoxycarbonyl)oxy)ethyl 3-chloro-4-(dodecyloxy)-1H-pyrrole-2-carboxylate]
IC50 [1]: < 50 nM | IC50 [2]: < 250 nM

CCCCCCCCCCCCOc1c[nH]c(C(=O)O)c1Cl [Example 80, 3-Chloro-4-(dodecyloxy)-1H-pyrrole-2-carboxylic acid]
IC50 [1]: < 50 nM | IC50 [2]: < 250 nM

CCCCCCCCCCCCCc1c[nH]c(C(=O)OCC(F)(F)F)c1Cl [Example 108, 2,2,2-Trifluoroethyl 3-chloro-4-tridecyl-1H-pyrrole-2-carboxylate]
IC50 [2]: 250 to 1000 nM

CCCCCCCCCCCCCc1cn(CCCC)c(C(=O)O)c1F [Example 69, 1-Butyl-3-fluoro-4-tridecyl-1H-pyrrole-2-carboxylic acid]
IC50 [2]: 1000 to 5000 nM

CCCCCCCCCCCCc1c[nH]c(C(=O)OCCN2C(=O)CCC2=O)c1Cl [Example 60, 2-(2,5-dioxopyrrolidin-1-yl)ethyl 3-chloro-4-dodecyl-1H-pyrrole-2-carboxylate]
IC50 [2]: 1000 to 5000 nM

CCCCCCCCCCCCCc1c[nH]c(C(=O)OCCCCCCCCCO)c1F [Example 39, 9-Hydroxynonyl 3-fluoro-4-tridecyl-1H-pyrrole-2-carboxylate]
IC50 [1]: < 50 nM | IC50 [2]: < 250 nM

CCCCCCCCCCCCCc1c[nH]c(C(=O)OCCCCCCCO)c1F [Example 37, 7-Hydroxyheptyl 3-fluoro-4-tridecyl-1H-pyrrole-2-carboxylate]
IC50 [1]: 100 to 250 nM | IC50 [2]: < 250 nM

CCCCCCCCCCCCCc1c[nH]c(C(=O)OCCOCCOCC)c1Cl [Example 109, 2-(2-Ethoxyethoxy)ethyl 3-chloro-4-tridecyl-1H-pyrrole-2-carboxylate]
IC50 [2]: 250 to 1000 nM

CCCCCCCCCCCCCc1c[nH]c(C(=O)O)c1F [Example 21, 3-Fluoro-4-tridecyl-1H-pyrrole-2-carboxylic acid]
IC50 [1]: < 50 nM | IC50 [2]: < 250 nM

CCCCCCCCCC(F)(F)COc1c[nH]c(C(=O)O)c1F [Example 98, 4-((2,2-Difluoroundecyl)oxy)-3-fluoro-1H-pyrrole-2-carboxylic acid]
IC50 [2]: 250 to 1000 nM

CCCCCCCCCCCCOc1c[nH]c(C(=O)OCCOC(=O)[C@@H](N)C(C)C)c1 [Example 10, 2-((L-valyl)oxy)ethyl 4-(dodecyloxy)-1H-pyrrole-2-carboxylate]
IC50 [2]: 1000 to 5000 nM

CCCCCCCCCCCc1c[nH]c(C(=O)O)c1F [Example 13, 3-Fluoro-4-undecyl-1H-pyrrole-2-carboxylic acid]
IC50 [1]: < 50 nM | IC50 [2]: < 250 nM

CCCCCCCCCCCCCc1c[nH]c(C(=O)OCCCCCCO)c1F [Example 36, 6-Hydroxyhexyl 3-fluoro-4-tridecyl-1H-pyrrole-2-carboxylate]
IC50 [1]: 100 to 250 nM | IC50 [2]: < 250 nM

CCCCCCCCCCCOc1c[nH]c(C(=O)OCC(F)(F)F)c1F [Example 103, 2,2,2-Trifluoroethyl 3-fluoro-4-(undecyloxy)-1H-pyrrole-2-carboxylate]
IC50 [1]: < 50 nM | IC50 [2]: < 250 nM

CCCCCCCCCCCCCc1c[nH]c(C(=O)O)c1C [Example 101, 3-Methyl-4-tridecyl-1H-pyrrole-2-carboxylic acid]
IC50 [2]: 1000 to 5000 nM

CCCCCCCCCCCCCc1c[nH]c(C(=O)OCC(O)CO)c1F (centres unmarked) [Example 40, 2,3-Dihydroxypropyl 3-fluoro-4-tridecyl-1H-pyrrole-2-carboxylate]
IC50 [1]: < 50 nM | IC50 [2]: < 250 nM

CCCCCCCCCCCCCCCCCc1c[nH]c(C(=O)O)c1F [Example 54, 3-Fluoro-4-heptadecyl-1H-pyrrole-2-carboxylic acid]
IC50 [1]: < 50 nM | IC50 [2]: < 250 nM

CCCCCCCCCCCCOc1c[nH]c(C(=O)OCCO)c1 [Example 6, 2-Hydroxyethyl 4-(dodecyloxy)-1H-pyrrole-2-carboxylate]
IC50 [2]: 1000 to 5000 nM

CCCCCCCCCCCCc1c[nH]c(C(=O)OCCOCCOCC)c1F [Example 16, 2-(2-Ethoxyethoxy)ethyl 4-dodecyl-3-fluoro-1H-pyrrole-2-carboxylate]
IC50 [1]: 50 to 100 nM | IC50 [2]: < 250 nM

CCCCCCCCCCCOc1c[nH]c(C(=O)OC(C)OC(=O)OCCOC)c1F (centres unmarked) [Example 106, 1-(((2-Methoxyethoxy)carbonyl)oxy)ethyl 3-fluoro-4-(undecyloxy)-1H-pyrrole-2-carboxylate]
IC50 [1]: < 50 nM | IC50 [2]: < 250 nM

CCCCCCCCCCCCc1c[nH]c(C(=O)OC(C)OC(=O)OCCOCCOCC)c1F (centres unmarked) [Example 19, 4-Oxo-3,5,8,11-tetraoxatridecan-2-yl 4-dodecyl-3-fluoro-1H-pyrrole-2-carboxylate]
IC50 [1]: < 50 nM | IC50 [2]: < 250 nM

CCCCCCCCCCCCOc1c[nH]c(C(=O)OCCOCCOCC)c1Cl [Example 83, 2-(2-Ethoxyethoxy)ethyl 3-chloro-4-(dodecyloxy)-1H-pyrrole-2-carboxylate]
IC50 [2]: 250 to 1000 nM

CCCCCCCCCCCCCc1c[nH]c(C(=O)OCCCCO)c1F [Example 34, 4-Hydroxybutyl 3-fluoro-4-tridecyl-1H-pyrrole-2-carboxylate]
IC50 [1]: 100 to 250 nM | IC50 [2]: < 250 nM

CCCCCCCCCCCCOc1c[nH]c(C(=O)OCc2oc(=O)oc2C)c1Cl [Example 88, (5-Methyl-2-oxo-1,3-dioxol-4-yl)methyl 3-chloro-4-(dodecyloxy)-1H-pyrrole-2-carboxylate]
IC50 [1]: < 50 nM | IC50 [2]: < 250 nM

CCCCCCCCCCCCc1cc(Cl)c(C(=O)OC(C)OC(=O)OCCOC)[nH]1 (centres unmarked) [Example 116, 1-(((2-Methoxyethoxy)carbonyl)oxy)ethyl 3-chloro-5-dodecyl-1H-pyrrole-2-carboxylate]
IC50 [1]: 50 to 100 nM | IC50 [2]: < 250 nM

CCCCCCCCCCCCCc1c[nH]c(C(=O)OC)c1F [Example 22, Methyl 3-fluoro-4-tridecyl-1H-pyrrole-2-carboxylate]
IC50 [2]: 1000 to 5000 nM

CCCCCCCCCCCCc1cc(Cl)c(C(=O)OCC(F)(F)F)[nH]1 [Example 113, 2,2,2-Trifluoroethyl 3-chloro-5-dodecyl-1H-pyrrole-2-carboxylate]
IC50 [2]: 1000 to 5000 nM

CCCCCCCCCCCOc1c[nH]c(C(=O)OC(C)OC(=O)OCCOCCOCC)c1F (centres unmarked) [Example 107, 4-Oxo-3,5,8,11-tetraoxatridecan-2-yl 3-fluoro-4-(undecyloxy)-1H-pyrrole-2-carboxylate]
IC50 [1]: < 50 nM | IC50 [2]: < 250 nM

CCCCCCCCCCCCc1c[nH]c(C(=O)OC(C)OC(=O)OCCOC)c1F (centres unmarked) [Example 18, 1-(((2-Methoxyethoxy)carbonyl)oxy)ethyl 4-dodecyl-3-fluoro-1H-pyrrole-2-carboxylate]
IC50 [1]: 100 to 250 nM | IC50 [2]: < 250 nM

CCCCCCCCCCCCCCCc1c[nH]c(C(=O)O)c1Cl [Example 62, 3-Chloro-4-pentadecyl-1H-pyrrole-2-carboxylic acid]
IC50 [2]: 250 to 1000 nM

CCCCCCCCCCCCCCc1c[nH]c(C(=O)O)c1F [Example 52, 3-Fluoro-4-tetradecyl-1H-pyrrole-2-carboxylic acid]
IC50 [1]: < 50 nM | IC50 [2]: < 250 nM

CCCCCCCCCCCc1c[nH]c(C(=O)O)c1Cl [Example 57, 3-Chloro-4-undecyl-1H-pyrrole-2-carboxylic acid]
IC50 [1]: < 50 nM | IC50 [2]: < 250 nM

CCCCCCCCCCCCCc1c[nH]c(C(=O)OC(C)OC(=O)OCCOC)c1F (centres unmarked) [Example 49, 1-(((2-Methoxyethoxy)carbonyl)oxy)ethyl 3-fluoro-4-tridecyl-1H-pyrrole-2-carboxylate]
IC50 [1]: < 50 nM | IC50 [2]: < 250 nM
